Measured values: patent US9610299B2, “Compounds for the treatment of addiction” (Gilead Sciences, Inc., priority 2011, dated 2017)

Tests used:
Type in all cases: in vivo
Male SD rats [1] = test: Rat nicotine self administration, acute treatment; conditions: for inhibition of number of nicotine infusions: vs vehicle
Method: Male SD rats were trained to self administer i.v. nicotine (0.03 mg/kg/inj) daily (Monday to Friday) in standard operant chambers with retractable levers (MED Associates, Inc) as previously published (Levin et al., 2003; Levin et al., 2007). During the daily 45 min session, rats received 0.05 ml infusion of 0.03 mg/kg/infusion of nicotine every time the active lever was pressed. A cue light and tone turned on for 0.5 sec together with the activation of a pump that delivered the nicotine solution. Daily sessions were run for at least 10 days before the initiation of drug testing. Solutions of compounds of Example 2 and Example 5 were prepared fresh daily in Formulation 2B: 25% PEG400/5% Vit E TPGS/1% SLS/69% water with 0.5% Methocel) for oral dosing. Compound of Example 2 doses were administered in a counterbalanced design for testing 1 hr before each nicotine session. Every rat received all drug doses and vehicle in a randomly assigned order. The oral drug administrations were made twice per week.
Compound of Example 5 was tested in a study using 4 independent groups. Each group received either oral vehicle or 1 of the 3 doses of compound of Example 5 (5, 10 or 30 mg-eq/kg). […] The 5 mg/kg dose was ineffective.

Male SD rats [2] = test: Rat nicotine self administration, chronic treatment; conditions: for inhibition of number of nicotine infusions: vs vehicle
Method: Upon completion of the acute compound of Example 5 treatment study, the same animals were used to test the effect of 7-day chronic oral administration of compound of Example 5 in the nicotine self administration model. Rats were treated orally with compound of Example 5 (5, 10 or 30 mg-eq/kg) or vehicle 1 hr before nicotine self administration session for 7 consecutive days. […] Similar to the acute treatment, the 5 mg-eq/kg dose was ineffective (FIG. 7). […] Animals in nicotine self administration studies had to reach pre defined criteria (e.g. rat strain, minimum number of nicotine infusions, consistent baseline nicotine self administration throughout the study, patent iv catheters, etc.) to be included in analysis.

[3] = tested on: male Sprague Dawley (SD) rats; test: Rat cocaine cue reinstatement; conditions: for inhibition of cocaine cue-induced reinstatement (lever presses): 1 hr before session, vs vehicle
Method: Training of male Sprague Dawley (SD) rats had 3 separate stages. First, during self administration, animals were trained to lever press for cocaine with presentation of concomitant cues associated with drug delivery. Rats that reached criteria for addiction were included in the study. Afterward, during cue extinction, cocaine-cue dependent behavior was extinguished. Lastly, during cocaine cue reinstatement, the effect of compounds was tested on lever presses upon cue presentation (FIG. 2).
Rats were trained to self administer i.v. cocaine (0.35 mg/kg/injection) daily (Monday to Friday) in standard operant chambers with retractable levers (Coulbourn Instruments, PA). During the daily 2 hr session, rats received a 0.05 ml infusion of 0.35 mg/kg cocaine every time the active lever was pressed. A cue light and tone turned on for 2 sec together with activation of a pump that delivered the cocaine solution. Rats were required to maintain an infusion rate of ≧20+ per day for at least 10 days before being moved to extinction training.
During extinction sessions lever presses no longer produced cocaine infusion and cue light/tone presentation was absent. Rats received a maximum of 15 extinction sessions.
On the next day after reaching extinction criteria, rats were treated orally with vehicle (Formulation 2B: 25% PEG400/5% Vit E TPGS/1% SLS/69% water with 0.5% Methocel) or drug (compound of Example 2 or compound of Example 5) before the cue reinstatement session. Cue reinstatement began with a tone and cue light. This 2 hr session was identical to the self-administration session (cue light and tone present upon active lever press) except that no cocaine was delivered. The number of active lever presses was compared to extinction lever responding. This is considered a measure of reinstatement. The next day, rats were returned to extinction sessions for at least 2 or 3 more sessions. Rats then received a second and last reinstatement session with an opposite treatment to the one received on the first reinstatement session (vehicle or drug treatment). […] The light/tone presentation triggers this response and it is interpreted as a measure of reinstatement even though cocaine is not available.

O=C(NCc1ccc(-c2cc[nH]c(=O)c2)cc1)c1c(Cl)cccc1Cl [Compound 2, 2,6-dichloro-N-[4-(2-oxo-1,2-dihydro-pyridin-4-yl)-benzyl]-benzamide]
effect on number of nicotine infusions, in words (Male SD rats [1]; 1 mg/kg oral): without effect
effect on number of nicotine infusions, in words (Male SD rats [1]; 5 mg/kg oral): without effect

O=C(NCc1ccc(-c2ccn(COP(=O)(O)O)c(=O)c2)cc1)c1c(Cl)cccc1Cl [Compound 14, phosphoric acid mono-(4-{4-[(2,6-dichloro-benzoylamino)-methyl]-phenyl}-2-oxo-2H-pyridin-1-ylmethyl) ester]
development of tolerance to the therapeutic effect (Male SD rats [2]; 7-day chronic oral administration (data not shown)): no development of tolerance
effect on number of nicotine infusions, in words (Male SD rats [2]; 7-day chronic oral, 5 mg-eq/kg): ineffective
inhibition of number of nicotine infusions (Male SD rats [2]; 7-day chronic oral, 10 mg-eq/kg): 48%
inhibition of number of nicotine infusions (Male SD rats [2]; 7-day chronic oral, 30 mg-eq/kg): 62%
inhibition of cocaine cue-induced reinstatement (lever presses) ([3]; 2.5 mg-eq/kg oral): 30%
effect on cocaine cue reinstatement, in words ([3]; 2.5 mg-eq/kg oral, lowest dose tested): not significantly different from vehicle
inhibition of cocaine cue-induced reinstatement (lever presses) ([3]; 5 mg-eq/kg oral): 59%
inhibition of cocaine cue-induced reinstatement (lever presses) ([3]; 10 mg-eq/kg oral): 55%
inhibition of cocaine cue-induced reinstatement (lever presses) ([3]; 30 mg-eq/kg oral): 50%
effect on number of nicotine infusions, in words (Male SD rats [1]; 5 mg-eq/kg oral, independent groups): ineffective
inhibition of number of nicotine infusions (Male SD rats [1]; 10 mg-eq/kg oral, independent groups): 51%
inhibition of number of nicotine infusions (Male SD rats [1]; 30 mg-eq/kg oral, independent groups): 68%
